Laboratory results from the NIST ThermoML archive (doi:10.1021/je0602824).
± gives the expanded uncertainty stated by the source.

Test: xn = mol fraction of the nth substance listed
Details: 101 kPa, Liquid

CCn1cc[n+](C)c1.O=S(=O)([O-])C(F)(F)F [1-ethyl-3-methylimidazolium trifluoromethanesulfonate] + O
Details	mass density [kg/m3]	viscosity [mPa·s]
278.15 K, x2 = 0	1400.52 ± 14	96 ± 7
278.15 K, x2 = 0.2286	–	47 ± 3
278.15 K, x2 = 0.2295	1388.3 ± 9.3	–
278.15 K, x2 = 0.431	1372.38 ± 6.5	–
278.15 K, x2 = 0.4324	–	28 ± 2
278.15 K, x2 = 0.6157	1347.34 ± 4.5	–
278.15 K, x2 = 0.6159	–	18 ± 2
278.15 K, x2 = 0.7825	1299.91 ± 3.1	–
278.15 K, x2 = 0.783	–	10 ± 2
278.15 K, x2 = 0.8608	1254.76 ± 2.5	–
278.15 K, x2 = 0.9352	–	5 ± 2
278.15 K, x2 = 0.9353	1171.9 ± 1.7	–
278.15 K, x2 = 0.9712	1097.49 ± 1.2	–
278.15 K, x2 = 0.9924	1030.35 ± 0.75	–
288.15 K, x2 = 0	1392.04 ± 13	61 ± 4
288.15 K, x2 = 0.2286	–	32 ± 2
288.15 K, x2 = 0.2295	1379.81 ± 9.2	–
288.15 K, x2 = 0.431	1363.87 ± 6.4	–
288.15 K, x2 = 0.4324	–	20 ± 2
288.15 K, x2 = 0.6157	1338.87 ± 4.4	–
288.15 K, x2 = 0.6159	–	13 ± 2
288.15 K, x2 = 0.7825	1291.74 ± 3	–
288.15 K, x2 = 0.783	–	7 ± 2
288.15 K, x2 = 0.8608	1247.16 ± 2.4	–
288.15 K, x2 = 0.9352	–	4
288.15 K, x2 = 0.9353	1165.97 ± 1.7	–
288.15 K, x2 = 0.9712	1093.64 ± 1.2	–
288.15 K, x2 = 0.9924	1028.64 ± 0.73	–
298.15 K, x2 = 0	1383.6 ± 13	41 ± 2
298.15 K, x2 = 0.2286	–	23 ± 2
298.15 K, x2 = 0.2295	1371.36 ± 9	–
298.15 K, x2 = 0.431	1355.39 ± 6.3	–
298.15 K, x2 = 0.4324	–	15 ± 2
298.15 K, x2 = 0.6157	1330.37 ± 4.3	–
298.15 K, x2 = 0.6159	–	10 ± 2
298.15 K, x2 = 0.7825	1283.47 ± 3	–
298.15 K, x2 = 0.783	–	6 ± 2
298.15 K, x2 = 0.8608	1239.38 ± 2.4	–
298.15 K, x2 = 0.9352	–	3
298.15 K, x2 = 0.9353	1159.65 ± 1.7	–
298.15 K, x2 = 0.9712	1089.08 ± 1.1	–
298.15 K, x2 = 0.9924	1025.88 ± 0.72	–
308.15 K, x2 = 0	1375.22 ± 13	29 ± 2
308.15 K, x2 = 0.2286	–	17 ± 2
308.15 K, x2 = 0.2295	1362.95 ± 8.9	–
308.15 K, x2 = 0.431	1346.93 ± 6.2	–
308.15 K, x2 = 0.4324	–	12 ± 2
308.15 K, x2 = 0.6157	1321.86 ± 4.3	–
308.15 K, x2 = 0.6159	–	8 ± 2
308.15 K, x2 = 0.7825	1275.1 ± 2.9	–
308.15 K, x2 = 0.783	–	5 ± 2
308.15 K, x2 = 0.8608	1231.42 ± 2.3	–
308.15 K, x2 = 0.9352	–	3
308.15 K, x2 = 0.9353	1152.94 ± 1.6	–
308.15 K, x2 = 0.9712	1083.9 ± 1.1	–
308.15 K, x2 = 0.9924	1022.24 ± 0.69	–
318.15 K, x2 = 0	1366.9 ± 13	21 ± 2
318.15 K, x2 = 0.2286	–	13 ± 2
318.15 K, x2 = 0.2295	1354.59 ± 8.8	–
318.15 K, x2 = 0.431	1338.49 ± 6.1	–
318.15 K, x2 = 0.4324	–	10 ± 2
318.15 K, x2 = 0.6157	1313.33 ± 4.2	–
318.15 K, x2 = 0.6159	–	7 ± 2
318.15 K, x2 = 0.7825	1266.62 ± 2.9	–
318.15 K, x2 = 0.783	–	4
318.15 K, x2 = 0.8608	1223.27 ± 2.3	–
318.15 K, x2 = 0.9352	–	3
318.15 K, x2 = 0.9353	1145.88 ± 1.6	–
318.15 K, x2 = 0.9712	1078.18 ± 1.1	–
318.15 K, x2 = 0.9924	1017.86 ± 0.67	–
328.15 K, x2 = 0	1358.63 ± 13	16 ± 2
328.15 K, x2 = 0.2286	–	10 ± 2
328.15 K, x2 = 0.2295	1346.27 ± 8.7	–
328.15 K, x2 = 0.431	1330.07 ± 6	–
328.15 K, x2 = 0.4324	–	8 ± 2
328.15 K, x2 = 0.6157	1304.78 ± 4.1	–
328.15 K, x2 = 0.6159	–	6 ± 2
328.15 K, x2 = 0.7825	1258.04 ± 2.8	–
328.15 K, x2 = 0.783	–	4
328.15 K, x2 = 0.8608	1214.94 ± 2.2	–
328.15 K, x2 = 0.9352	–	3
328.15 K, x2 = 0.9353	1138.49 ± 1.5	–
328.15 K, x2 = 0.9712	1071.95 ± 1	–
328.15 K, x2 = 0.9924	1012.83 ± 0.63	–
338.15 K, x2 = 0	1350.43 ± 12	13 ± 2
338.15 K, x2 = 0.2286	–	9 ± 2
338.15 K, x2 = 0.2295	1338.01 ± 8.5	–
338.15 K, x2 = 0.431	1321.68 ± 5.9	–
338.15 K, x2 = 0.4324	–	7 ± 2
338.15 K, x2 = 0.6157	1296.19 ± 4	–
338.15 K, x2 = 0.6159	–	5 ± 2
338.15 K, x2 = 0.7825	1249.35 ± 2.7	–
338.15 K, x2 = 0.783	–	4
338.15 K, x2 = 0.8608	1206.43 ± 2.2	–
338.15 K, x2 = 0.9352	–	2
338.15 K, x2 = 0.9353	1130.76 ± 1.5	–
338.15 K, x2 = 0.9712	1065.25 ± 1	–
338.15 K, x2 = 0.9924	1007.21 ± 0.6	–
348.15 K, x2 = 0	1342.3 ± 12	11 ± 2
348.15 K, x2 = 0.2286	–	7 ± 2
348.15 K, x2 = 0.2295	1329.77 ± 8.4	–
348.15 K, x2 = 0.431	1313.29 ± 5.8	–
348.15 K, x2 = 0.4324	–	6 ± 2
348.15 K, x2 = 0.6157	1287.58 ± 4	–
348.15 K, x2 = 0.6159	–	5 ± 2
348.15 K, x2 = 0.7825	1240.55 ± 2.7	–
348.15 K, x2 = 0.783	–	3
348.15 K, x2 = 0.8608	1197.74 ± 2.1	–
348.15 K, x2 = 0.9352	–	2
348.15 K, x2 = 0.9353	1122.73 ± 1.4	–
348.15 K, x2 = 0.9712	1058.13 ± 0.95	–
348.15 K, x2 = 0.9924	1001.05 ± 0.56	–
